Target: T1, bovine serum albumin (BSA) (Bos taurus, UniProt P02769)
T1 construct: gene ALB
Assay: tryptophan fluorescence quenching (ex […] nm), double-log plot
Format: binding
Conditions: no pluronic; pH 7.4, 298.15 K

T1 sequence (P02769 25-607): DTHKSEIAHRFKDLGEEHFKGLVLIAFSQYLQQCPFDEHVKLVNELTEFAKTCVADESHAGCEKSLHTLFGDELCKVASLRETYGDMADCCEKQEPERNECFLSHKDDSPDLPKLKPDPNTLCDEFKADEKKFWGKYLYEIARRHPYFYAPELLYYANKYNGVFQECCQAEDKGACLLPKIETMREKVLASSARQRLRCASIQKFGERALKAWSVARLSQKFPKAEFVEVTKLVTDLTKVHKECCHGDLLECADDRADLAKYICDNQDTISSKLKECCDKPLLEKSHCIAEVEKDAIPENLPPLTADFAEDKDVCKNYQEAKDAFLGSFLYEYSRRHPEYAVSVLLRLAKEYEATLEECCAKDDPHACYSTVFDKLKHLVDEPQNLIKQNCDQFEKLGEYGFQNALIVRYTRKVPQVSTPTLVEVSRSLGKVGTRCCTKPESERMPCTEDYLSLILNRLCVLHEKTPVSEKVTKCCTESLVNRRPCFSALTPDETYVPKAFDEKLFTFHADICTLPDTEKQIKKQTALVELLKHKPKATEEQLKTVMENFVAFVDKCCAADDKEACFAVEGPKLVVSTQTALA

Row | Compound | K a (M^-1)
1 | Nc1ccn([C@@H]2O[C@H](CO)[C@@H](O)[C@@H]2O)c(=O)n1 [cytarabine] | (1.1 ± 0.1) × 10^2 M^-1
2 | Nc1ccn([C@@H]2O[C@H](CO)[C@@H](O)C2(F)F)c(=O)n1 [gemcitabine] | (2.4 ± 0.2) × 10^2 M^-1
3 | NC(=O)NO [hydroxyurea] | (2.3 ± 0.4) × 10^2 M^-1
